In brackets after ≈: the same amount, converted by molar mass. Activity calls are given as the source filed them. The rule behind the calls is not given here.
Experiments:
[1] = tested on: Mycobacterium tuberculosis; experiment: Anti-tubercular activity against Mycobacterium tuberculosis H37Rv assessed as inhibition of mycobacterial growth incubated for 7 days by resazurin-dye based analysis; format: functional; details: 168 h, time 7 day
[2] = tested on: Mycobacterium tuberculosis; experiment: Anti-tubercular activity against Mycobacterium tuberculosis CF16 assessed as inhibition of mycobacterial growth incubated for 7 days by resazurin-dye based analysis; format: functional; details: CF16, 168 h, time 7 day
[3] = tested on: Mycobacterium tuberculosis; experiment: Anti-tubercular activity against Mycobacterium tuberculosis CF152 assessed as inhibition of mycobacterial growth incubated for 7 days by resazurin-dye based analysis; format: functional; details: CF152, 168 h, time 7 day
[4] = tested on: Mycobacterium tuberculosis; experiment: Anti-tubercular activity against Mycobacterium tuberculosis CF161 assessed as inhibition of mycobacterial growth incubated for 7 days by resazurin-dye based analysis; format: functional; details: CF161, 168 h, time 7 day
[5] = tested on: Mycobacterium tuberculosis; experiment: Anti-tubercular activity against Mycobacterium tuberculosis CF76 assessed as inhibition of mycobacterial growth incubated for 7 days by resazurin-dye based analysis; format: functional; details: CF76, 168 h, time 7 day
[6] = tested on: Mycobacterium tuberculosis; experiment: Anti-tubercular activity against Mycobacterium tuberculosis CF61 assessed as inhibition of mycobacterial growth incubated for 7 days by resazurin-dye based analysis; format: functional; details: CF61, 168 h, time 7 day
[7] = Selectivity index, ratio of IC50 for cytotoxicity against mouse J774.A1 cells to MIC90 for anti-tubercular activity against Mycobacterium tuberculosis H37Rv; format: toxicity, cell-based; details: read-out: Selectivity Index
[8] = Cytotoxicity against mouse J774.A1 cells assessed as reduction in cell viability incubated for 24 hrs by resazurin-dye based analysis; format: toxicity
[9] = Cytotoxicity against human MRC5 cells assessed as reduction in cell viability incubated for 24 hrs by resazurin-dye based analysis; format: toxicity
[10] = Selectivity index, ratio of IC50 for cytotoxicity against human MRC5 cells to MIC90 for anti-tubercular activity against Mycobacterium tuberculosis H37Rv; format: toxicity, cell-based; details: read-out: Selectivity Index
[11] = tested on: Mycobacterium tuberculosis; experiment: Anti-tubercular activity against Mycobacterium tuberculosis infected in mouse J774.A1 cells assessed as inhibition of intracellular bacilli growth incubated for 72 hrs; format: functional, organism-based
[12] = tested on: Mycobacterium tuberculosis; experiment: Bacteriostatic activity against Mycobacterium tuberculosis H37Rv at 1XMIC measured for 12 days by time-kill kinetics analysis; format: functional, organism-based; details: time 12.0 day
[13] = tested on: Mycobacterium tuberculosis; experiment: Bactericidal activity against Mycobacterium tuberculosis H37Rv assessed as log reduction of bacterial colonies at 1XMIC measured on day 12 by time-kill kinetics analysis (reference value: 7.54 log10CFU/ml); format: functional; details: time 12 day

Structure (SMILES)	MIC90 [1] [µg/mL]	selectivity ratio [7]	IC50 at 24 h [8] [µg/mL]	IC50 at 24 h [9] [µg/mL]	selectivity ratio [10]	further results
Cc1cc(CNC2CCC(N)CC2)c(C)n1-c1ccc(Cl)cc1.Cl.Cl (centres undefined)	> 25					
Cc1cc(CNCC2CCCCC2)c(C)n1Cc1ccccn1	23 (≈ 73.9 µM)					
Cc1cc(CNC2CCCCC2)c(C)n1-c1ccc(OCC(=O)O)cc1	16.4 (≈ 45.9 µM)					
Cc1cc(CNCc2ccccc2)c(C)n1-c1ccccn1	> 25					
Cc1cc(CNCC2CCCCC2)c(C)n1-c1ccccc1	0.3 (≈ 1.01 µM)					
Cc1cc(CNCc2ccccc2)c(C)n1C1CCCC1	13.4 (≈ 47.6 µM)					
Cc1cc(CNC2CCC(NC(=N)N)CC2)c(C)n1-c1ccc(Cl)cc1.Cl.Cl (centres undefined)	10.4					
CO[C@H]1/C=C/O[C@@]2(C)Oc3c(C)c(O)c4c(O)c(c(/C=N/N5CCN(C)CC5)c(O)c4c3C2=O)NC(=O)/C(C)=C\C=C\[C@H](C)[C@H](O)[C@@H](C)[C@@H](O)[C@@H](C)[C@H](OC(C)=O)[C@@H]1C [RIFAMPIN]	0.05 (≈ 0.0608 µM)					MIC90 [2]: 0.2 µg/mL (≈ 0.243 µM); MIC90 [3]: > 25 µg/mL; MIC90 [4]: > 25 µg/mL; MIC90 [5]: > 25 µg/mL; MIC90 [6]: > 25 µg/mL
Cc1cc(CNCCCCNC(=N)N)c(C)n1-c1ccc(Cl)cc1.Cl.Cl	14.2					
Cc1cc(CNC2CCCCC2)c(C)n1-c1ccc(OCC(=O)N(C)C)cc1	> 25					
Cc1ccc(-n2c(C)cc(CNCC3CCCCC3)c2C)cc1	4.88 (≈ 15.7 µM)	5.13	25.1 (≈ 80.7 µM)	15.6 (≈ 50.2 µM)	3.19	
Cc1cc(CNCc2ccccc2)c(C)n1-c1nc2ccccc2s1	11.2 (≈ 32.1 µM)					
Cc1cc(CNCc2ccccc2)c(C)n1CC1CCCCC1	6.58 (≈ 21.2 µM)	2.04	13.4 (≈ 43.3 µM)	18.3 (≈ 58.8 µM)	2.78	
NNC(=O)c1ccncc1 [ISONIAZID]	0.11 (≈ 0.802 µM)					MIC90 [2]: > 25 µg/mL; MIC90 [3]: > 25 µg/mL; Activity [11]: Active; MIC90 [4]: > 25 µg/mL; MIC90 [5]: > 25 µg/mL; MIC90 [6]: > 25 µg/mL
Cc1cc(CNCc2ccccc2)c(C)n1Cc1ccc(Cl)cc1	10.6 (≈ 31.1 µM)					
Cc1cc(CNCC2CCCCC2)c(C)n1-c1ccccn1	16.3 (≈ 54.7 µM)					

Structure (SMILES)	MIC90 [1] [µg/mL]	selectivity ratio [7]	IC50 at 24 h [8] [µg/mL]	IC50 at 24 h [9] [µg/mL]	selectivity ratio [10]	further results
Cc1cc(CNCc2ccccc2)c(C)n1Cc1ccc(F)cc1	6.96 (≈ 21.6 µM)	2.26	15.7 (≈ 48.7 µM)	16.2 (≈ 50.1 µM)	2.32	
Cc1cc(CNCC2CCCCC2)c(C)n1Cc1ccc(F)cc1	0.73 (≈ 2.22 µM)	13.6	9.88 (≈ 30.1 µM)	21 (≈ 63.9 µM)	28.8	Activity [12]: Active; MIC90 [2]: 7.69 µg/mL (≈ 23.4 µM); MIC90 [3]: 7.53 µg/mL (≈ 22.9 µM); Activity [11]: Active; MIC90 [4]: 7.31 µg/mL (≈ 22.3 µM); MIC90 [5]: 18.8 µg/mL (≈ 57.2 µM); MIC90 [6]: 9.38 µg/mL (≈ 28.6 µM)
NCC[C@H](O)C(=O)N[C@@H]1C[C@H](N)[C@@H](O[C@H]2O[C@H](CN)[C@@H](O)[C@H](O)[C@H]2O)[C@H](O)[C@H]1O[C@H]1O[C@H](CO)[C@@H](O)[C@H](N)[C@H]1O [AMIKACIN]	0.25 (≈ 0.427 µM)					MIC90 [2]: 0.22 µg/mL (≈ 0.376 µM); MIC90 [3]: 0.19 µg/mL (≈ 0.324 µM); MIC90 [4]: 0.24 µg/mL (≈ 0.41 µM); MIC90 [5]: 0.25 µg/mL (≈ 0.427 µM); MIC90 [6]: 0.91 µg/mL (≈ 1.55 µM)
CCOc1ccc(-n2c(C)cc(CNC3CCCCC3)c2C)cc1	5.14 (≈ 15.7 µM)	1.78	9.17 (≈ 28.1 µM)	19.9 (≈ 61 µM)	3.87	
COc1c(N2C[C@@H]3CCCN[C@@H]3C2)c(F)cc2c(=O)c(C(=O)O)cn(C3CC3)c12 [MOXIFLOXACIN]	≤ 0.07	209	14.6 (≈ 36.3 µM)	> 100	1430	MIC90 [2]: 0.14 µg/mL (≈ 0.349 µM); MIC90 [3]: 0.57 µg/mL (≈ 1.42 µM); Activity [11]: Active; MIC90 [4]: 0.17 µg/mL (≈ 0.423 µM); MIC90 [5]: 0.2 µg/mL (≈ 0.498 µM); MIC90 [6]: 0.27 µg/mL (≈ 0.673 µM)
Cc1cc(CNCc2ccccc2)c(C)n1C(C)c1ccccc1 (centres undefined)	7.94 (≈ 24.9 µM)	2.21	17.6 (≈ 55.1 µM)	33.3 (≈ 105 µM)	4.2	
Cc1cc(CNCC2CCCCC2)c(C)n1Cc1ccc(Cl)cc1	1.39 (≈ 4.03 µM)	4.25	5.92 (≈ 17.2 µM)	10.8 (≈ 31.2 µM)	7.71	
Cc1cc(CNCC2CCCCC2)c(C)n1C1CCCCC1	1.74 (≈ 5.75 µM)	6.89	12 (≈ 39.6 µM)	26.7 (≈ 88.3 µM)	15.3	
Cc1cc(CNCCCCCCCCNC(=N)N)c(C)n1-c1ccc(OCC(=O)N(C)C)cc1.Cl.Cl	8.91	1.43	12.8	36	4.04	
Cc1cc(CNCCCCCCCCNC(=N)N)c(C)n1-c1ccc(OCC(=O)O)cc1.Cl.Cl	13.2					
Cc1cc(CNCC2CCCCC2)c(C)n1C1CCCC1	9.21 (≈ 31.9 µM)					
Cc1cc(CNCC2CCCCC2)c(C)n1C(C)c1ccccc1 (centres undefined)	4.48 (≈ 13.8 µM)	13.5	60.6 (≈ 187 µM)	23.4 (≈ 72.2 µM)	5.23	MIC90 [2]: 8.7 µg/mL (≈ 26.8 µM); MIC90 [3]: 4.32 µg/mL (≈ 13.3 µM); Activity [11]: Active; MIC90 [4]: 9.94 µg/mL (≈ 30.6 µM); Activity [13]: 3.94 log10CFU/ml; MIC90 [5]: 9.13 µg/mL (≈ 28.1 µM); MIC90 [6]: 10.2 µg/mL (≈ 31.3 µM)
Cc1ccc(-n2c(C)cc(CNCc3ccccc3)c2C)cc1	5.58 (≈ 18.3 µM)	15.8	94 (≈ 309 µM)	13.7 (≈ 45 µM)	2.3	MIC90 [2]: 7.51 µg/mL (≈ 24.7 µM); MIC90 [3]: 6.35 µg/mL (≈ 20.9 µM); MIC90 [4]: 6.12 µg/mL (≈ 20.1 µM); Activity [13]: 2.65 log10CFU/ml; MIC90 [5]: 8.18 µg/mL (≈ 26.9 µM); MIC90 [6]: 9.16 µg/mL (≈ 30.1 µM)
Cc1cc(CNCC2CCCCC2)c(C)n1-c1nc2ccccc2s1	0.4 (≈ 1.13 µM)	21.2	8.47 (≈ 24 µM)	10.3 (≈ 29.2 µM)	25.8	Activity [12]: Active; MIC90 [2]: 20.1 µg/mL (≈ 56.9 µM); MIC90 [3]: 10.9 µg/mL (≈ 30.9 µM); Activity [11]: Active; MIC90 [4]: 13.6 µg/mL (≈ 38.5 µM); MIC90 [5]: 19.6 µg/mL (≈ 55.5 µM); MIC90 [6]: 23.5 µg/mL (≈ 66.5 µM)
Cc1cc(CNNC(=O)c2ccncc2)c(C)n1-c1ccc(Cl)cc1			78.5 (≈ 221 µM)	96.1 (≈ 271 µM)		
Cc1cc(CNC2CCCCC2)c(C)n1-c1ccc(C(=O)O)cc1	> 25					

— ChEMBL document CHEMBL5120848, “Tapping into the antitubercular potential of 2,5-dimethylpyrroles: A structure-activity relationship interrogation” (Eur J Med Chem, 2022)
